{"source": "ChEMBL document CHEMBL1132917", "about": "“Discovery of a potent, non-triketone type inhibitor of 4-hydroxyphenylpyruvate dioxygenase” (Bioorg Med Chem Lett, 2000)"}
{"target": "4-hydroxyphenylpyruvate dioxygenase (Sus scrofa, UniProt Q02110)", "sequence (Q02110 whole entry)": "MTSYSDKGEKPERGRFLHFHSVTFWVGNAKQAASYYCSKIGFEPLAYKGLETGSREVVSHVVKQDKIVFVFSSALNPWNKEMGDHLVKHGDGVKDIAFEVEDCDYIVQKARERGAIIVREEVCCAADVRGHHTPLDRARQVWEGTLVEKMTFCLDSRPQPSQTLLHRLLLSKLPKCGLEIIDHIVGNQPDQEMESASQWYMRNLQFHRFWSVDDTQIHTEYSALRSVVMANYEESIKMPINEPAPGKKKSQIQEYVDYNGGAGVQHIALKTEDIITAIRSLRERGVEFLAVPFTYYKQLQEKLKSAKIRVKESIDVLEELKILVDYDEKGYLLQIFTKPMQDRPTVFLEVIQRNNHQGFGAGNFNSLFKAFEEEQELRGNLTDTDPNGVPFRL", "test": "In vitro inhibitory activity against HPPD(4-hydroxyphenylpyruvate Dioxygenase) from pig liver using enol borate assay method", "units": {"IC50": "µM"}}
{"compound": "O=C1C=C(OC(=O)C2CC2)CCC1", "IC50": 0.03}
{"compound": "CC(=O)OC1=CC(=O)CCC1", "IC50": 3.62}
{"compound": "CC(C)C(=O)OC1=CC(=O)CCC1", "IC50": 4.16}
